Where two headings read alike, the source gives them in different places. Blank lines part the entries; values can stand above or below the molecule they belong to.
Molecular target: T1, FmlHLD (Escherichia coli, UniProt Q1RBS0)
T1 sequence (Q1RBS0 25-184): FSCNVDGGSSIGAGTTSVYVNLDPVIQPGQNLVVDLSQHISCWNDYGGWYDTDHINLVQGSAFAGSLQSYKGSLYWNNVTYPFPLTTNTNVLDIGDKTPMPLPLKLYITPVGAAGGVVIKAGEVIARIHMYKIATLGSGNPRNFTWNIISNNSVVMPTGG
Assay type: binding, Escherichia coli (UPEC strain UTI89)
Details: for Percent inhibition (PI100) of FmlHLD binding to ds-BSM: mean with SEM in Table S2

[1] = Fig. 1B: 1 mM or 0.1 mM compounds

SMILES: CC(=O)N[C@H]1C(O)O[C@H](CO)[C@H](O)[C@@H]1O (mixture of isomers) [GalNAc, N-acetylgalactosamine, reference compound]
- Inhibition of FmlHLD binding to ds-BSM (in words) (compound at 1 mM): capable of inhibiting FmlHLD

SMILES: OC[C@H]1O[C@@H](Oc2ccccc2)[C@H](O)[C@@H](O)[C@H]1O [1β, phenyl β-galactoside]
- Percent inhibition (PI100) of FmlHLD binding to ds-BSM (compound at 100 μM, 100 µM): 77%

SMILES: OC[C@H]1O[C@@H](Oc2cc3c(O)cc(O)cc3[o+]c2-c2ccc(O)c(O)c2)[C@H](O)[C@@H](O)[C@H]1O [24β, cyanidin galactoside]
- Percent inhibition (PI100) of FmlHLD binding to ds-BSM (compound at 100 μM, 100 µM): 29%

SMILES: OC[C@H]1OC(O)[C@H](O)[C@@H](O)[C@@H]1O (stereo partly drawn) [Glc, glucose, reference compound]
- Inhibition of FmlHLD binding to ds-BSM (in words) [1]: neither Man nor glucose (Glc) had any detectable effect

SMILES: OC[C@H]1OC(O)[C@@H](O)[C@@H](O)[C@@H]1O (stereo partly drawn) [Man, mannose, reference compound]
- Inhibition of FmlHLD binding to ds-BSM (in words) [1]: neither Man nor glucose (Glc) had any detectable effect

SMILES: CC(=O)N[C@@H]1[C@@H](O[C@@H]2O[C@H](CO)[C@H](O)[C@H](O)[C@H]2O)[C@@H](O)[C@@H](CO)O[C@@H]1O [TF, Gal(β1-3)GalNAc(α), reference compound]
- Inhibition of FmlHLD binding to ds-BSM (in words) (compound at 1 mM): capable of inhibiting FmlHLD

Next, values leading:

- Percent inhibition (PI100) of FmlHLD binding to ds-BSM (compound at 100 μM, 100 µM): 80%
SMILES: O=c1ccc2nc3ccc(O[C@@H]4O[C@H](CO)[C@H](O)[C@H](O)[C@H]4O)cc3oc-2c1 [15β]

- Percent inhibition (PI100) of FmlHLD binding to ds-BSM (compound at 100 μM): 3.6%
SMILES: COc1cc(-c2[o+]c3cc(O)cc(O)c3cc2O[C@@H]2O[C@H](CO)[C@H](O)[C@H](O)[C@H]2O)ccc1O [25β]

- Percent inhibition (PI100) of FmlHLD binding to ds-BSM (compound at 100 μM, 100 µM): 14%
SMILES: O=c1c(O[C@@H]2O[C@H](CO)[C@H](O)[C@H](O)[C@H]2O)c(-c2ccc(O)c(O)c2)oc2cc(O)cc(O)c12 [26β, quercetin galactoside]

- Inhibition of FmlHLD binding to ds-BSM (in words) (compound at 100 μM): minor inhibitory activity
SMILES: CC(C)S[C@@H]1O[C@H](CO)[C@H](O)[C@H](O)[C@H]1O [36β-thio, isopropyl β-thiogalactoside, reference compound]

- Inhibition of FmlHLD binding to ds-BSM (in words) (compound at 1 mM): capable of inhibiting FmlHLD
SMILES: O=C[C@H](O)[C@@H](O)[C@@H](O)[C@H](O)CO [Gal, galactose, reference compound]

- Inhibition of FmlHLD binding to ds-BSM (in words) [1]: incapable of inhibiting FmlHLD
SMILES: OC[C@H]1O[C@@H](O[C@H]2[C@H](O)[C@@H](O)C(O)O[C@@H]2CO)[C@H](O)[C@@H](O)[C@H]1O (stereo partly drawn) [Lac, Gal(β1-4)Glc, reference compound]

— publication PMC5866590 (Proceedings of the National Academy of Sciences of the …, 2018)
